# From article PMC10778198, “First-in-Human Dose-Escalation Study of the Novel Oral Depsipeptide Class I-Targeting HDAC Inhibitor Bocodepsin (OKI-179) in Patients with Advanced Solid Tumors” (Cancers, 2023)
# Test system: patients with advanced solid tumors
# Assay: phase I dose escalation: safety, DLT, MTD, RP2D (CTCAE v. 5)
# Format: in vivo
# Excerpt: Subsequent dosing cohorts were enrolled using a standard 3 + 3 design.
# If any patient in any cohort of three patients developed a DLT during cycle 1, an additional three patients were recruited to expand the cohort to up to six evaluable patients. If two or more patients in any expanded cohort developed a DLT, this dose was considered non-tolerated, and dose escalation was discontinued. The MTD was defined as the highest dose level for which no more than one of six patients experienced a DLT.
# Patients were continuously evaluated for adverse events throughout the study using the Common Terminology Criteria of Adverse Events (CTCAE v. 5). The patients underwent a clinical history and physical examination, an ECOG PS, a complete blood count (CBCs), chemistry, coagulation studies, urinalysis, a serum pregnancy test (as applicable), a triplicate ECG, an ophthalmology examination, and baseline tumor assessment at screening. During cycle 1, weekly history and physical examination, CBC, chemistry, coagulation parameters, urinalysis, and triplicate ECGs were performed; in subsequent cycles, weekly labs were limited to a CBC. Repeat ophthalmology examinations were performed at cycle 3, day 1, and at the end of treatment. Repeat tumor assessment was performed every 2 cycles (6 weeks) in accordance with RECIST 1.1.
# [1] = All 4:3 Patients (n = 20), All Grades
# [2] = All Continuous Patients (N=8), All grades
# [3] = All Continuous Patients (N=8), G1
# [4] = All Continuous Patients (N=8), G2
# [5] = All Continuous Patients (N=8), G3
compound,measurement,setting,value
"CC(C)[C@H](N)C(=O)SCC/C=C/[C@@H]1CC(=O)NCc2nc(cs2)C(=O)NC(C)(C)C(=O)N[C@@H](C(C)C)C(=O)O1 [OKI-179, Bocodepsin]",TEAE: Platelet count decreased,"5:2, 300 mg (N=6), G2",0 N (%)
same,TEAE: Pneumonitis,"5:2, 300 mg (N=6), G2",1 (17) N (%)
same,TEAE: Pneumothorax,"5:2, 300 mg (N=6), G2",0 N (%)
same,TEAE: Vomiting,"5:2, 300 mg (N=6), G2",1 (17) N (%)
same,TEAE: Abdominal pain,"5:2, 300 mg (N=6), G3",0 N (%)
same,TEAE: Anemia,"5:2, 300 mg (N=6), G3",1 (17) N (%)
same,TEAE: Aspartate aminotransferase increased,"5:2, 300 mg (N=6), G3",0 N (%)
same,TEAE: Back pain,"5:2, 300 mg (N=6), G3",1 (17) N (%)
same,TEAE: Bile duct stenosis,"5:2, 300 mg (N=6), G3",1 (17) N (%)
same,TEAE: Blood alkaline phosphatase increased,"5:2, 300 mg (N=6), G3",0 N (%)
same,TEAE: Decreased appetite,"5:2, 300 mg (N=6), G3",1 (17) N (%)
same,TEAE: Dehydration,"5:2, 300 mg (N=6), G3",0 N (%)
same,TEAE: Dysphagia,"5:2, 300 mg (N=6), G3",0 N (%)
same,TEAE: ECG QT prolonged,"5:2, 300 mg (N=6), G3",0 N (%)
same,TEAE: Enterococcal bacteremia,"5:2, 300 mg (N=6), G3",1 (17) N (%)
same,TEAE: Esophagitis,"5:2, 300 mg (N=6), G3",0 N (%)
same,TEAE: Esophagoscopy,"5:2, 300 mg (N=6), G3",0 N (%)
same,TEAE: Eye pain,"5:2, 300 mg (N=6), G3",0 N (%)
same,TEAE: Fatigue,"5:2, 300 mg (N=6), G3",0 N (%)
same,TEAE: Gastritis,"5:2, 300 mg (N=6), G3",0 N (%)
same,TEAE: Hypomagnesaemia,"5:2, 300 mg (N=6), G3",0 N (%)
same,TEAE: Myalgia,"5:2, 300 mg (N=6), G3",0 N (%)
same,TEAE: Nausea,"5:2, 300 mg (N=6), G3",1 (17) N (%)
same,TEAE: Neutrophil count decreased,"5:2, 300 mg (N=6), G3",0 N (%)
same,TEAE: Oropharyngeal pain,"5:2, 300 mg (N=6), G3",0 N (%)
same,TEAE: Pain in extremity,"5:2, 300 mg (N=6), G3",0 N (%)
same,TEAE: Paresthesia,"5:2, 300 mg (N=6), G3",0 N (%)
same,TEAE: Platelet count decreased,"5:2, 300 mg (N=6), G3",0 N (%)
same,TEAE: Pneumonitis,"5:2, 300 mg (N=6), G3",0 N (%)
same,TEAE: Pneumothorax,"5:2, 300 mg (N=6), G3",1 (17) N (%)
same,TEAE: Vomiting,"5:2, 300 mg (N=6), G3",0 N (%)
same,TEAE: Fatigue,"5:2 cohort, 300 mg",67%
same,TEAE: Nausea,"5:2 cohort, 300 mg",83%
same,TEAE: Vomiting,"5:2 cohort, 300 mg",50%
same,TEAE: decreased platelet count,"5:2 cohort, 300 mg",67%
same,TEAE: Anemia,[1],8 (40) n (%)
same,TEAE: Back pain,[1],4 (20) n (%)
same,TEAE: Cough,[1],4 (20) n (%)
same,TEAE: Decreased appetite,[1],7 (35) n (%)
same,TEAE: Diarrhea,[1],5 (25) n (%)
same,TEAE: Dyspnea,[1],3 (15) n (%)
same,TEAE: ECG QT prolonged,[1],4 (20) n (%)
same,TEAE: Fatigue,[1],8 (40) n (%)
same,TEAE: Headache,[1],3 (15) n (%)
same,TEAE: Hypokalaemia,[1],3 (15) n (%)
same,TEAE: Muscular weakness,[1],4 (20) n (%)
same,TEAE: Nasal congestion,[1],3 (15) n (%)
same,TEAE: Platelet count decreased,[1],6 (30) n (%)
same,TEAE: Proteinuria,[1],3 (15) n (%)
same,TEAE: Pyrexia,[1],4 (20) n (%)
same,TEAE: Vomiting,[1],6 (30) n (%)
same,TEAE: Weight decreased,[1],3 (15) n (%)
same,TEAE: Anemia,"All 4:3 Patients (n = 20), G1",1 (5) n (%)
same,TEAE: Back pain,"All 4:3 Patients (n = 20), G1",3 (15) n (%)
same,TEAE: Cough,"All 4:3 Patients (n = 20), G1",3 (15) n (%)
same,TEAE: Decreased appetite,"All 4:3 Patients (n = 20), G1",4 (20) n (%)
same,TEAE: Diarrhea,"All 4:3 Patients (n = 20), G1",5 (25) n (%)
same,TEAE: Dyspnea,"All 4:3 Patients (n = 20), G1",3 (15) n (%)
same,TEAE: ECG QT prolonged,"All 4:3 Patients (n = 20), G1",1 (5) n (%)
same,TEAE: Fatigue,"All 4:3 Patients (n = 20), G1",3 (15) n (%)
same,TEAE: Headache,"All 4:3 Patients (n = 20), G1",3 (15) n (%)
same,TEAE: Hypokalaemia,"All 4:3 Patients (n = 20), G1",1 (5) n (%)
same,TEAE: Muscular weakness,"All 4:3 Patients (n = 20), G1",1 (5) n (%)
same,TEAE: Nasal congestion,"All 4:3 Patients (n = 20), G1",3 (15) n (%)
same,TEAE: Nausea,"All 4:3 Patients (n = 20), G1",9 (45) n (%)
same,TEAE: Platelet count decreased,"All 4:3 Patients (n = 20), G1",4 (20) n (%)
same,TEAE: Proteinuria,"All 4:3 Patients (n = 20), G1",0 n (%)
same,TEAE: Pyrexia,"All 4:3 Patients (n = 20), G1",3 (15) n (%)
same,TEAE: Vomiting,"All 4:3 Patients (n = 20), G1",5 (25) n (%)
same,TEAE: Weight decreased,"All 4:3 Patients (n = 20), G1",2 (10) n (%)
same,TEAE: Anemia,"All 4:3 Patients (n = 20), G2",2 (10) n (%)
same,TEAE: Back pain,"All 4:3 Patients (n = 20), G2",0 n (%)
same,TEAE: Cough,"All 4:3 Patients (n = 20), G2",1 (5) n (%)
same,TEAE: Decreased appetite,"All 4:3 Patients (n = 20), G2",3 (15) n (%)
same,TEAE: Diarrhea,"All 4:3 Patients (n = 20), G2",0 n (%)
same,TEAE: Dyspnea,"All 4:3 Patients (n = 20), G2",0 n (%)
same,TEAE: ECG QT prolonged,"All 4:3 Patients (n = 20), G2",0 n (%)
same,TEAE: Fatigue,"All 4:3 Patients (n = 20), G2",2 (10) n (%)
same,TEAE: Headache,"All 4:3 Patients (n = 20), G2",0 n (%)
same,TEAE: Hypokalaemia,"All 4:3 Patients (n = 20), G2",2 (10) n (%)
same,TEAE: Muscular weakness,"All 4:3 Patients (n = 20), G2",2 (10) n (%)
same,TEAE: Nasal congestion,"All 4:3 Patients (n = 20), G2",0 n (%)
same,TEAE: Nausea,"All 4:3 Patients (n = 20), G2",4 (20) n (%)
same,TEAE: Platelet count decreased,"All 4:3 Patients (n = 20), G2",2 (10) n (%)
same,TEAE: Proteinuria,"All 4:3 Patients (n = 20), G2",3 (15) n (%)
same,TEAE: Pyrexia,"All 4:3 Patients (n = 20), G2",0 n (%)
same,TEAE: Vomiting,"All 4:3 Patients (n = 20), G2",1 (5) n (%)
same,TEAE: Weight decreased,"All 4:3 Patients (n = 20), G2",1 (5) n (%)
same,TEAE: Anemia,"All 4:3 Patients (n = 20), G3",5 (25) n (%)
same,TEAE: Back pain,"All 4:3 Patients (n = 20), G3",1 (5) n (%)
same,TEAE: Cough,"All 4:3 Patients (n = 20), G3",0 n (%)
same,TEAE: Decreased appetite,"All 4:3 Patients (n = 20), G3",0 n (%)
same,TEAE: Diarrhea,"All 4:3 Patients (n = 20), G3",0 n (%)
same,TEAE: Dyspnea,"All 4:3 Patients (n = 20), G3",0 n (%)
same,TEAE: ECG QT prolonged,"All 4:3 Patients (n = 20), G3",3 (15) n (%)
same,TEAE: Fatigue,"All 4:3 Patients (n = 20), G3",3 (15) n (%)
same,TEAE: Headache,"All 4:3 Patients (n = 20), G3",0 n (%)
same,TEAE: Hypokalaemia,"All 4:3 Patients (n = 20), G3",0 n (%)
same,TEAE: Muscular weakness,"All 4:3 Patients (n = 20), G3",1 (5) n (%)
same,TEAE: Nasal congestion,"All 4:3 Patients (n = 20), G3",0 n (%)
same,TEAE: Nausea,"All 4:3 Patients (n = 20), G3",0 n (%)
same,TEAE: Platelet count decreased,"All 4:3 Patients (n = 20), G3",0 n (%)
same,TEAE: Proteinuria,"All 4:3 Patients (n = 20), G3",0 n (%)
same,TEAE: Pyrexia,"All 4:3 Patients (n = 20), G3",1 (5) n (%)
same,TEAE: Vomiting,"All 4:3 Patients (n = 20), G3",0 n (%)
same,TEAE: Weight decreased,"All 4:3 Patients (n = 20), G3",0 n (%)
same,TEAE: Abdominal pain,[2],2 (25) N (%)
same,TEAE: Anemia,[2],2 (25) N (%)
same,TEAE: Constipation,[2],6 (75) N (%)
same,TEAE: Decreased appetite,[2],2 (25) N (%)
same,TEAE: Diarrhea,[2],3 (38) N (%)
same,TEAE: Dyspepsia,[2],2 (25) N (%)
same,TEAE: ECG QT prolonged,[2],2 (25) N (%)
same,TEAE: Fatigue,[2],4 (50) N (%)
same,TEAE: Headache,[2],3 (38) N (%)
same,TEAE: Nausea,[2],6 (75) N (%)
same,TEAE: Pain,[2],2 (25) N (%)
same,TEAE: Platelet count decreased,[2],4 (50) N (%)
same,TEAE: Abdominal pain,[3],1 (13) N (%)
same,TEAE: Anemia,[3],0 N (%)
same,TEAE: Constipation,[3],3 (38) N (%)
same,TEAE: Decreased appetite,[3],1 (13) N (%)
same,TEAE: Diarrhea,[3],3 (38) N (%)
same,TEAE: Dyspepsia,[3],1 (13) N (%)
same,TEAE: ECG QT prolonged,[3],1 (13) N (%)
same,TEAE: Fatigue,[3],1 (13) N (%)
same,TEAE: Headache,[3],3 (38) N (%)
same,TEAE: Nausea,[3],4 (50) N (%)
same,TEAE: Pain,[3],1 (13) N (%)
same,TEAE: Platelet count decreased,[3],1 (13) N (%)
same,TEAE: Abdominal pain,[4],1 (13) N (%)
same,TEAE: Anemia,[4],2 (25) N (%)
same,TEAE: Constipation,[4],3 (38) N (%)
same,TEAE: Decreased appetite,[4],0 N (%)
same,TEAE: Diarrhea,[4],0 N (%)
same,TEAE: Dyspepsia,[4],1 (13) N (%)
same,TEAE: ECG QT prolonged,[4],1 (13) N (%)
same,TEAE: Fatigue,[4],2 (25) N (%)
same,TEAE: Headache,[4],0 N (%)
same,TEAE: Nausea,[4],2 (25) N (%)
same,TEAE: Pain,[4],1 (13) N (%)
same,TEAE: Platelet count decreased,[4],1 (13) N (%)
same,TEAE: Abdominal pain,[5],0 N (%)
same,TEAE: Anemia,[5],0 N (%)
same,TEAE: Constipation,[5],0 N (%)
same,TEAE: Decreased appetite,[5],1 (13) N (%)
same,TEAE: Diarrhea,[5],0 N (%)
same,TEAE: Dyspepsia,[5],0 N (%)
same,TEAE: ECG QT prolonged,[5],0 N (%)
same,TEAE: Fatigue,[5],1 (13) N (%)
